Results from paper PMC4730229, “Benzobisthiazoles Represent a Novel Scaffold for Kinase Inhibitors of CLK Family Members” (Biochemistry, 2015).

Legend:
Assay in all cases: Kinase profiling (radioactive filter binding)
Format in all cases: biochemical
Settings in all cases: 1 uM compound
ERK8 = ERK8 (Homo sapiens, UniProt Q8TD08)
Protocol: (§1) 3A5 and 5E4 were sent to the International Centre for Kinase Profiling at the MRC Protein Phosphorylation and Ubiquitylation Unit for profiling (as described in ref ([17])). Compounds were profiled against 140 kinases using a radioactive ([^33P]ATP) filter binding assay at a concentration of 1 μM. Results were obtained as inhibition of kinase activity and are listed in Supplementary Table 2.

TIE2 = TIE2 (Homo sapiens, UniProt Q02763)
Protocol: as §1

WNK1 = WNK1 (Homo sapiens, UniProt Q9H4A3)
Protocol: as §1

NEK2a = NEK2a (Homo sapiens, UniProt P51955)
Protocol: as §1

SYK = SYK (Homo sapiens, UniProt P43405)
Protocol: as §1

TLK1 = TLK1 (Homo sapiens, UniProt Q9UKI8)
Protocol: as §1

TTK = TTK (Homo sapiens, UniProt P33981)
Protocol: as §1

HER4 = HER4 (Homo sapiens, UniProt Q15303)
Protocol: as §1

p38d MAPK = p38d MAPK (Homo sapiens, UniProt O15264)
Protocol: as §1

BTK = BTK (Homo sapiens, UniProt Q06187)
Protocol: as §1

EPH-B3 = EPH-B3 (Homo sapiens, UniProt P54753)
Protocol: as §1

SIK3 = SIK3 (Homo sapiens, UniProt Q9Y2K2)
Protocol: as §1

BRK = BRK (Homo sapiens, UniProt Q13882)
Protocol: as §1

TTBK2 = TTBK2 (Homo sapiens, UniProt Q6IQ55)
Protocol: as §1

CAMKKb = CAMKKb (Homo sapiens, UniProt Q96RR4)
Protocol: as §1

PKBa = PKBa (Homo sapiens, UniProt P31749)
Protocol: as §1

ZAP70 = ZAP70 (Homo sapiens, UniProt P43403)
Protocol: as §1

PDGFRA = PDGFRA (Homo sapiens, UniProt P16234)
Protocol: as §1

MNK1 = MNK1 (Homo sapiens, UniProt Q9BUB5)
Protocol: as §1

BRSK1 = BRSK1 (Homo sapiens, UniProt Q8TDC3)
Protocol: as §1

CHK1 = CHK1 (Homo sapiens, UniProt O14757)
Protocol: as §1

MST3 = MST3 (Homo sapiens, UniProt Q9Y6E0)
Protocol: as §1

TrkA = TrkA (Homo sapiens, UniProt P04629)
Protocol: as §1

MKK6 = MKK6 (Homo sapiens, UniProt P52564)
Protocol: as §1

IKKb = IKKb (Homo sapiens, UniProt O14920)
Protocol: as §1

PINK = PINK (Tribolium castaneum, UniProt D6WMX4)
Protocol: as §1

MARK1 = MARK1 (Homo sapiens, UniProt Q9P0L2)
Protocol: as §1

IRAK4 = IRAK4 (Homo sapiens, UniProt Q9NWZ3)
Protocol: as §1

MARK4 = MARK4 (Homo sapiens, UniProt Q96L34)
Protocol: as §1

TAK1 = TAK1 (Homo sapiens, UniProt O43318)
Protocol: as §1

S6K1 = S6K1 (Homo sapiens, UniProt P23443)
Protocol: as §1

PAK5 = PAK5 (Homo sapiens, UniProt Q9P286)
Protocol: as §1

NUAK1 = NUAK1 (Homo sapiens, UniProt O60285)
Protocol: as §1

Aurora B = Aurora B (Homo sapiens, UniProt Q96GD4)
Protocol: as §1

TAO1 = TAO1 (Homo sapiens, UniProt Q7L7X3)
Protocol: as §1

PKCγ = PKCγ (Homo sapiens, UniProt P05129)
Protocol: as §1

HIPK1 = HIPK1 (Homo sapiens, UniProt Q86Z02)
Protocol: as §1

CK1γ2 = CK1γ2 (Homo sapiens, UniProt P78368)
Protocol: as §1

MAPKAP-K2 = MAPKAP-K2 (Homo sapiens, UniProt P49137)
Protocol: as §1

JNK3 = JNK3 (Homo sapiens, UniProt P53779)
Protocol: as §1

MEKK1 = MEKK1 (Homo sapiens, UniProt Q13233)
Protocol: as §1

RIPK2 = RIPK2 (Homo sapiens, UniProt O43353)
Protocol: as §1

TBK1 = TBK1 (Homo sapiens, UniProt Q9UHD2)
Protocol: as §1

BRK, sequence (Q13882 whole entry): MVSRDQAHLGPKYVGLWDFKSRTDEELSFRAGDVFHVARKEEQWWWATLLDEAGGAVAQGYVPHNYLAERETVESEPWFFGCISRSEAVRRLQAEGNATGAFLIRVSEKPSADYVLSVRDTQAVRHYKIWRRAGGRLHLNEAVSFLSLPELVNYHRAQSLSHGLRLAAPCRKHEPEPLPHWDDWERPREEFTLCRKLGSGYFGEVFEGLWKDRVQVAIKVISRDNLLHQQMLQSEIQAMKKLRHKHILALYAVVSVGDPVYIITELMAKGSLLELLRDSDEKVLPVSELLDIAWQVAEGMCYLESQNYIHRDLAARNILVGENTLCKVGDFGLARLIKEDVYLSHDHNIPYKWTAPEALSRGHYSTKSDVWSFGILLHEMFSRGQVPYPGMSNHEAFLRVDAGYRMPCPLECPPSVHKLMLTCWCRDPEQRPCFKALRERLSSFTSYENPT
RIPK2, sequence (O43353 whole entry): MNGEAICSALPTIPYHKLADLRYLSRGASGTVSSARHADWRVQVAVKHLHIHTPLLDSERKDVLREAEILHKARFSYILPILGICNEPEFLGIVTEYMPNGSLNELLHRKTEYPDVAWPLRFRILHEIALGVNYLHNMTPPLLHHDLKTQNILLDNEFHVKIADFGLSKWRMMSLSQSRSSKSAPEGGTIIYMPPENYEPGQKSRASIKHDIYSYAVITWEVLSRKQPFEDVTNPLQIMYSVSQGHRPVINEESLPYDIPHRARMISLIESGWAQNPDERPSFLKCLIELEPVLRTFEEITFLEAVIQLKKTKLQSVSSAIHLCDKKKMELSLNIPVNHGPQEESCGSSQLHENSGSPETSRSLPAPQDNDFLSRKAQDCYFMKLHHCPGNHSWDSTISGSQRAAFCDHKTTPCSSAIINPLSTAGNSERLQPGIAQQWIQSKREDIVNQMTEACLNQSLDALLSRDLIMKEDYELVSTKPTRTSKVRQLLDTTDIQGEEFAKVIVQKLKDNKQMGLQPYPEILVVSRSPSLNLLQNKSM
CAMKKb, sequence (Q96RR4 whole entry): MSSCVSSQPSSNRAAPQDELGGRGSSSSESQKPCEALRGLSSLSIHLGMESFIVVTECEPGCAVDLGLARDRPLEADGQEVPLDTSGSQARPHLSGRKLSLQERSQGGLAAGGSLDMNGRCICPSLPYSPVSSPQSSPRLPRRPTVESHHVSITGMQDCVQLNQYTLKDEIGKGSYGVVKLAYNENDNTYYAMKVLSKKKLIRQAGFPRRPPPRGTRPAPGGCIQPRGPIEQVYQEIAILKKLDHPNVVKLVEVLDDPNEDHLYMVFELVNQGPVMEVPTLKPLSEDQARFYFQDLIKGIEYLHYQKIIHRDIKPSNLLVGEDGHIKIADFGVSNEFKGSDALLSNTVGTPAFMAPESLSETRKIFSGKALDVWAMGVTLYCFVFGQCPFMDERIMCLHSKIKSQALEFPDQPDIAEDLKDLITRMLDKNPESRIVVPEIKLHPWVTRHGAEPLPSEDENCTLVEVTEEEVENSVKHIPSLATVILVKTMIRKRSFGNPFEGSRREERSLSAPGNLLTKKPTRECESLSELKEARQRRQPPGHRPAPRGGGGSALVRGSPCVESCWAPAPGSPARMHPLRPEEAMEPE
CK1γ2, sequence (P78368 whole entry): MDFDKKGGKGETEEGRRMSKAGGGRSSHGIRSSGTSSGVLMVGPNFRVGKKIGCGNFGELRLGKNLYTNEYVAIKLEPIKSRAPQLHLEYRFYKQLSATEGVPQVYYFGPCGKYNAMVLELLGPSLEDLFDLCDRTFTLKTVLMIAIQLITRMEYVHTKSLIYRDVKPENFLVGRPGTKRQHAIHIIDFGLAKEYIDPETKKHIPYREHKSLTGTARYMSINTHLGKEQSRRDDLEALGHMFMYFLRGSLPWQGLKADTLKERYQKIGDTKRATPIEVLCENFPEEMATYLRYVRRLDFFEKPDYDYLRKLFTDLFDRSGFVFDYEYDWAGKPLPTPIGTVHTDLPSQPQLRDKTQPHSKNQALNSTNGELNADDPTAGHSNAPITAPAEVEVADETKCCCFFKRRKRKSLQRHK
ERK8, sequence (Q8TD08 whole entry): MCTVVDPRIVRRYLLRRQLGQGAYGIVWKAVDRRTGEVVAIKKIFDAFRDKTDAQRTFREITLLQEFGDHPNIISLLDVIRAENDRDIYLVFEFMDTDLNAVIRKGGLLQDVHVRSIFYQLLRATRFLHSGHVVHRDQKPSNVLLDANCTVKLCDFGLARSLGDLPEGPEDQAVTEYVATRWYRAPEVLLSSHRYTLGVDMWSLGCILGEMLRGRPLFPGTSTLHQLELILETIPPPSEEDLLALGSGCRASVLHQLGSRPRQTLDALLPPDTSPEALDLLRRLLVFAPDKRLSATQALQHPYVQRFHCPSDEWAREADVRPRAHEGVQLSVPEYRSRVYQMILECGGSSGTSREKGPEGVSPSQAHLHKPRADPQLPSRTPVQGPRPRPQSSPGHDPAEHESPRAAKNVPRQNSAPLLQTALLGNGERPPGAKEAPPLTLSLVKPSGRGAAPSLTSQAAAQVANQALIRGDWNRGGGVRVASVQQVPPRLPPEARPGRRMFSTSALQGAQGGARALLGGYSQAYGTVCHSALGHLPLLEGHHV
NEK2a, sequence (P51955 whole entry): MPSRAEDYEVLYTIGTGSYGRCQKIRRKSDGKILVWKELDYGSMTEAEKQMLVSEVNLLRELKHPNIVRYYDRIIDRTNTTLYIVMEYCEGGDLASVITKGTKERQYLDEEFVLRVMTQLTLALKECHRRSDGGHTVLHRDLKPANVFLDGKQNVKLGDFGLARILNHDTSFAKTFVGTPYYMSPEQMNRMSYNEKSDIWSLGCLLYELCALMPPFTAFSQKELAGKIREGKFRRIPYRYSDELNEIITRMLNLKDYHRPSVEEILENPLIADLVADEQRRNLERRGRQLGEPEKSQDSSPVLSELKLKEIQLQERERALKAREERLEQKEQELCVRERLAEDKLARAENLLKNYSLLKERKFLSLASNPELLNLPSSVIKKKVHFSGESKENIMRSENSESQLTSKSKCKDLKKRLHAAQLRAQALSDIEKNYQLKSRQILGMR
PKBa, sequence (P31749 whole entry): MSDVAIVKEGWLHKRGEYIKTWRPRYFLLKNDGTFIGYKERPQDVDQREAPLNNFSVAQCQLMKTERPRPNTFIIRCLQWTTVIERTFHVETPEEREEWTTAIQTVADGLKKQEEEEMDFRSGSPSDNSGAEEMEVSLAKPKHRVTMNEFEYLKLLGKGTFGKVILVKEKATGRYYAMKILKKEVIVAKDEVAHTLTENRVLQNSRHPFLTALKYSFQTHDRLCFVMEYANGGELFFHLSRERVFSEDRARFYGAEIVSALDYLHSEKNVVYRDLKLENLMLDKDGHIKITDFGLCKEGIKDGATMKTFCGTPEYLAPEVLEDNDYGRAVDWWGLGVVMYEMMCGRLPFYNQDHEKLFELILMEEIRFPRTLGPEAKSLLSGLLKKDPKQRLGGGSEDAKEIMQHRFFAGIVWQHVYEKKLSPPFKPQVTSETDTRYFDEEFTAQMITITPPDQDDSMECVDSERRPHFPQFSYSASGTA
PDGFRA, sequence (P16234 24-1089): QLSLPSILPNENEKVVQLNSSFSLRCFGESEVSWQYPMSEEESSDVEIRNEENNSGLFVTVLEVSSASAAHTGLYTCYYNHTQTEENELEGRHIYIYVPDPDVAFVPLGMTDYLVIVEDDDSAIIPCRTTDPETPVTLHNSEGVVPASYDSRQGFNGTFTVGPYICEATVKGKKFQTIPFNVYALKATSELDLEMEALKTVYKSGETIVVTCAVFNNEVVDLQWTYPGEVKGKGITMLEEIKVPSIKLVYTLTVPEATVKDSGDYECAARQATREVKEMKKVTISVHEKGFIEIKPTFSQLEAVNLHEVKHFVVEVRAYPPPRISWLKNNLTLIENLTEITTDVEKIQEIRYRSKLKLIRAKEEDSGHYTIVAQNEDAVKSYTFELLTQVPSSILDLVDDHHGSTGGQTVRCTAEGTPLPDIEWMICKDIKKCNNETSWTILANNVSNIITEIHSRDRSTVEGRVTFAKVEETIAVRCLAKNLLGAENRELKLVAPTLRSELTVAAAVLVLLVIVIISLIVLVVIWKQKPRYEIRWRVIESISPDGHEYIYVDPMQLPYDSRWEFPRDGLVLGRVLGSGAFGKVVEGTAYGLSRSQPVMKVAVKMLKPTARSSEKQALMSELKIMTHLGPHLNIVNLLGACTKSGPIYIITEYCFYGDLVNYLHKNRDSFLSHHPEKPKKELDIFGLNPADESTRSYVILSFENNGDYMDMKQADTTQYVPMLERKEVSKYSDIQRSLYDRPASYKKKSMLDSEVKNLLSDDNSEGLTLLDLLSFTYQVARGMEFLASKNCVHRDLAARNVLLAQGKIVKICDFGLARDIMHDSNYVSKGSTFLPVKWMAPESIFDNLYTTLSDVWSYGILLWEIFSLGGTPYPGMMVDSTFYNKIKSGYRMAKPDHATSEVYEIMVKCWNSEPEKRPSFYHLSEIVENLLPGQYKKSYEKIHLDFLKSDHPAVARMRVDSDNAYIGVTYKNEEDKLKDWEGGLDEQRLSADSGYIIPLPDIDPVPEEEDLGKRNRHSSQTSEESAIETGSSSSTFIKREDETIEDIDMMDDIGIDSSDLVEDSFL
MKK6, sequence (P52564 whole entry): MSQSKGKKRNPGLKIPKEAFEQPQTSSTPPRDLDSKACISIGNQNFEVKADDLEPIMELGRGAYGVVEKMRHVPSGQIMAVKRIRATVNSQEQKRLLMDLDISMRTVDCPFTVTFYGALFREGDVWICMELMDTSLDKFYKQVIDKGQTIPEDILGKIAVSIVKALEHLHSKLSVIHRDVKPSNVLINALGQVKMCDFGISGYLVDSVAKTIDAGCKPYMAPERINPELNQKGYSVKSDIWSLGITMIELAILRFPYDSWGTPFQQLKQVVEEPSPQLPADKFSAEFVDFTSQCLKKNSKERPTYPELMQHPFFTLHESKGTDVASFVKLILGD

Compound: CSc1nc2ccc3nc(NC(=O)c4ccco4)sc3c2s1 [5E4, N-[7-(methylsulfanyl)[1,3]thiazolo[4,5-g][1,3]benzothiazol-2-yl]-2-furamide]
- ERK8 activity in kinase profiling (ERK8): 83
- TIE2 activity in kinase profiling (TIE2): 89
- WNK1 activity in kinase profiling (WNK1): 90
- NEK2a activity in kinase profiling (NEK2a): 83
- SYK activity in kinase profiling (SYK): 102
- TLK1 activity in kinase profiling (TLK1): 92
- TTK activity in kinase profiling (TTK): 60
- HER4 activity in kinase profiling (HER4): 102
- p38d MAPK activity in kinase profiling (p38d MAPK): 103
- BTK activity in kinase profiling (BTK): 105
- EPH-B3 activity in kinase profiling (EPH-B3): 110
- SIK3 activity in kinase profiling (SIK3): 79
- BRK activity in kinase profiling (BRK): 98
- TTBK2 activity in kinase profiling (TTBK2): 103
- CAMKKb activity in kinase profiling (CAMKKb): 91
- activity at 1 µM (PKBa): 103%
- ZAP70 activity in kinase profiling (ZAP70): 93
- PDGFRA activity in kinase profiling (PDGFRA): 86
- MNK1 activity in kinase profiling (MNK1): 99
- BRSK1 activity in kinase profiling (BRSK1): 86
- CHK1 activity in kinase profiling (CHK1): 111
- MST3 activity in kinase profiling (MST3): 99
- TrkA activity in kinase profiling (TrkA): 90
- MKK6 activity in kinase profiling (MKK6): 101
- IKKb activity in kinase profiling (IKKb): 90
- PINK activity in kinase profiling (PINK): 118
- MARK1 activity in kinase profiling (MARK1): 107
- IRAK4 activity in kinase profiling (IRAK4): 50
- MARK4 activity in kinase profiling (MARK4): 87
- TAK1 activity in kinase profiling (TAK1): 67
- S6K1 activity in kinase profiling (S6K1): 80
- PAK5 activity in kinase profiling (PAK5): 81
- NUAK1 activity in kinase profiling (NUAK1): 82
- Aurora B activity in kinase profiling (Aurora B): 64
- TAO1 activity in kinase profiling (TAO1): 99
- PKCγ activity in kinase profiling (PKCγ): 100
- HIPK1 activity in kinase profiling (HIPK1): 25
- CK1γ2 activity in kinase profiling (CK1γ2): 88
- MAPKAP-K2 activity in kinase profiling (MAPKAP-K2): 92
- JNK3 activity in kinase profiling (JNK3): 123
- MEKK1 activity in kinase profiling (MEKK1): 108
- RIPK2 activity in kinase profiling (RIPK2): 34
- TBK1 activity in kinase profiling (TBK1): 83

Compound: Cc1nc2ccc3sc(NC(=O)c4ccc5ncsc5c4)nc3c2s1 [3A5, N-(2-methyl[1,3]thiazolo[5,4-e][1,3]benzothiazol-7-yl)-1,3-benzothiazole-6-carboxamide]
- ERK8 activity in kinase profiling (ERK8): 82
- TIE2 activity in kinase profiling (TIE2): 98
- WNK1 activity in kinase profiling (WNK1): 99
- NEK2a activity in kinase profiling (NEK2a): 81
- SYK activity in kinase profiling (SYK): 99
- TLK1 activity in kinase profiling (TLK1): 99
- TTK activity in kinase profiling (TTK): 56
- HER4 activity in kinase profiling (HER4): 94
- p38d MAPK activity in kinase profiling (p38d MAPK): 105
- BTK activity in kinase profiling (BTK): 106
- EPH-B3 activity in kinase profiling (EPH-B3): 89
- SIK3 activity in kinase profiling (SIK3): 84
- BRK activity in kinase profiling (BRK): 97
- TTBK2 activity in kinase profiling (TTBK2): 108
- CAMKKb activity in kinase profiling (CAMKKb): 98
- activity at 1 µM (PKBa): 123%
- ZAP70 activity in kinase profiling (ZAP70): 109
- PDGFRA activity in kinase profiling (PDGFRA): 91
- MNK1 activity in kinase profiling (MNK1): 109
- BRSK1 activity in kinase profiling (BRSK1): 101
- CHK1 activity in kinase profiling (CHK1): 120
- MST3 activity in kinase profiling (MST3): 100
- TrkA activity in kinase profiling (TrkA): 93
- MKK6 activity in kinase profiling (MKK6): 119
- IKKb activity in kinase profiling (IKKb): 85
- PINK activity in kinase profiling (PINK): 115
- MARK1 activity in kinase profiling (MARK1): 103
- IRAK4 activity in kinase profiling (IRAK4): 46
- MARK4 activity in kinase profiling (MARK4): 80
- TAK1 activity in kinase profiling (TAK1): 87
- S6K1 activity in kinase profiling (S6K1): 72
- PAK5 activity in kinase profiling (PAK5): 75
- NUAK1 activity in kinase profiling (NUAK1): 73
- Aurora B activity in kinase profiling (Aurora B): 69
- TAO1 activity in kinase profiling (TAO1): 94
- PKCγ activity in kinase profiling (PKCγ): 102
- HIPK1 activity in kinase profiling (HIPK1): 105
- CK1γ2 activity in kinase profiling (CK1γ2): 22
- MAPKAP-K2 activity in kinase profiling (MAPKAP-K2): 107
- JNK3 activity in kinase profiling (JNK3): 107
- MEKK1 activity in kinase profiling (MEKK1): 79
- RIPK2 activity in kinase profiling (RIPK2): 83
- TBK1 activity in kinase profiling (TBK1): 83
